Assay [1] deals with A431 cells. As to the kind of experiment: Drug screening with live/dead assay on A431 cells in the MECT microfluidic device. Format: cell-based. The protocol:
Taking advantage of the ability of the MECT device in generating uniform gradient within each chamber, a drug screening study with A431 cells administrated with control media and Dox was performed. Five conditions were studied: (1) Cells were stained with live/dead assay 24 hours after seeding without any media flow. This serves as the control; (2) cells were perfused by DMEM from both inlets for 12 hours before live/dead staining. This experiment examined the effect of shear stress on cell viability; (3, 4, 5) cells were perfused for 12 hours with DMEM/Dox (at a concentration of 30 μg/ml) from the bottom inlet and DMEM from the top inlet at flow rates of 0.05 μl/min (3), 0.1 μl/min (4) and 0.2 μl/min (5) for both inlets. Representative images for the studies of condition 1, 2, 4 and 5 are shown in FIGS. 6a-6d and of condition 3 in FIG. 7a. These studies were performed after the cells had been seeded within the microchambers for 24 hours. […] This provided clear evidence that cells within each chamber were viable and the device works properly. The effect of shear stress was then examined by perfusion of both inlets with a control media, Dulbecco's Modified Eagle Medium (DMEM) at a flow rate of 0.1 μl/min. Overall a slightly lower cell viability, at an average of 88%, was observed due to the shear induced cell death (FIG. 6b). In addition, the cell viability increased from the columns closest to the inlet of the device to the columns closes to the outlets, in agreement with COMSOL simulation where the shear stress is higher in the columns close to the inlets (FIG. 5).
As discussed in microchannel fabrication, PDMS with ratio 1:10 were used to fabricate the microchannel and it was bonded to glass-slides and cured for 30 min at 80° C. inside the oven. Human fibronectin protein (Thermofisher) with the concentration of 50 μg/ml was used to coat the surface of the glass-slide as the bottom layer of the microchannels. Fibronectin was flowed into the microchannels by syringes and incubated for 2 hours. The fibronectin coated microchannel was washed with PBS. A mixture of the cell and DMEM was flowed into the microchannel by syringe pump at a flow rate (30 μl/min). The concentration of cell mixture was about 10 million cells per ml of media. Cell attachment and proliferation inside the microchannel was reached by placing the microchannel inside the incubator for 24 hours.
Doxorubicin hydrochloride 98.0-102.0% (HPLC) with molecular weight of 579.98 was dissolved in water and was diluted in DMEM media. […] Cells were then counted with ImageJ cell counter module. Viability of the cells was calculated as the ratio of the live cells (stained green) over the total number of the cell, summation of the live (green) and dead (red) cells within each chamber.

The test system of assay [2] is A431 cells. As to the kind of experiment: Multi-well (static culture) Dox study on A431 cells, live/dead assay. Format: cell-based. To be noted: Dox 0, 6, 12, 18, 24 and 30 μg/ml; device flow rate 0.05 μl/min.
Experimental: Viability data with DMEM/Dox at the inlets at a flow rate of 0.05 μl/ml was compared with Dox treatment of A431 cells in static culture. A lower flow rate was chosen to minimize the effect of the shear stress on cell detachment and cell death. […] Cell viabilities data was collected by counting cells stained green and red from these chambers. According to simulation data, the concentration of Dox in the chambers 13 through 18 are: 0 μg/ml, 6 μg/ml, 12 μg/ml, 18 μg/ml, 24 μg/ml and 30 μg/ml. These dosages were applied in static culture and the viability data were collected. […] Doxorubicin hydrochloride 98.0-102.0% (HPLC) with molecular weight of 579.98 was dissolved in water and was diluted in DMEM media. For A431 cells, live-dead staining kit was diluted with PBS and was continuously flowed into the chambers with cells for 2 hours. Live-dead kit contains, Calcein-AM which stains green to the cytoskeleton of live cells and ethidium homodimer which stains red to the nuclei of dead cells. Cells were then counted with ImageJ cell counter module. Viability of the cells was calculated as the ratio of the live cells (stained green) over the total number of the cell, summation of the live (green) and dead (red) cells within each chamber.

Structures can show the parent of a compound that is named as a salt.

Regarding `COc1cccc2c1C(=O)c1c(O)c3c(c(O)c1C2=O)C[C@@](O)(C(=O)CO)C[C@@H]3O[C@H]1C[C@H](N)[C@H](O)[C@H](C)O1` [Dox, Doxorubicin hydrochloride], the “overall cell viability in condition 5 (0.2 μl/min DMEM/Dox) versus condition 4 (0.1 μl/min DMEM/Dox)” value with A431 cells [1] (12 h, Dox 30 μg/ml, higher shear stress at higher flow rate) is recorded as “clearly lower”. For the same compound, the “cell viability from chambers #13 to #18” value with A431 cells [1] (12 h DMEM/Dox 30 μg/ml, flow rates 0.05, 0.1 and 0.2 μl/min (conditions 3 through 5)) was “overall decline”. Besides, the “cell viability from top chamber to bottom chamber of each column (lowest to highest Dox concentration)” value in the assay on A431 cells [1] (12 h perfusion, DMEM top inlet, DMEM/Dox 30 μg/ml bottom inlet, flow rates 0.1 and 0.2 μl/min) was “decreased significantly”. The “effect of increasing doxorubicin concentrations within chambers on skin cancer cells” value in the assay with A431 cells [1] (doxorubicin flowed into chambers at different flow rate) is reported as “induces cell death”. The “cell viability in static culture compared with device chambers #13 through #18” value with A431 cells [2] is “reasonable agreement”.

The record behind these values is patent US12064759B2, “Microfluidic device with embedded cell culture chambers for high throughput biological assays” (NUtech Ventures, priority 2020, dated 2024).
